“Also recorded” adds a separate entry of the source. Bridge positions count the residues as written; N and C are the ends. Ends that are not written are not given here. Peptide text beside a SMILES is read from it.
Assays:
AgrC-I receptor = AgrC-I receptor (Staphylococcus epidermidis, UniProt Q5HMY3); assay: cell-based; format: cell-based, S. epidermidis; details: for Mode/strength of activity toward AgrC-I (Group I), in words: dose response; for Activity toward Group-I at lower concentration, in words: single concentration 100 nM (or 1 μM)
Description: The initial set of 14 analogs (listed in Table 1) was synthesized using solid-phase peptide chemistry and purified to homogeneity using previously established HPLC methods (59). Each analog was tested for its ability to modulate the activity of the AgrC-I receptor using a wild-type S. epidermidis Group-I fluorescence reporter strain. This strain contained a reporter plasmid encoding a gfp gene fused to the P3 promoter found upstream of RNAIII (36).
(§1) Biological reagents, strains, and general methods. All standard reagents were purchased from commercial sources and used according to enclosed instructions. The S. epidermidis fluorescence reporter strains AH3408 (Group-I), AH3567 (Group-II), and AH3409 (Group-III) were cultured in Tryptic Soy Broth (TSB, from Sigma) augmented with 10 μg/mL of erythromycin (36). The S. epidermidis wild-type strain RP62A (Group-I) was cultured in TSB (from Sigma or EMD Millipore). The S. aureus fluorescence reporter strains AH1677 (Group-I), AH430 (Group-II), AH1747 (Group-III), and AH1872 (Group-IV) were cultured in Brain Heart Infusion (BHI, from Teknova) augmented with 10 μg/mL of chloramphenicol (65). All cultures were grown at 37° C. with shaking (200 rpm) unless noted otherwise. Absorbance and fluorescence measurements were obtained using a Biotek Synergy 2 microplate reader operating Gen5 data analysis software. IC50 values and EC50 values were determined from sigmoidal curve fits using GraphPad Prism software (v. 6.0).
(§2) Fluorescence reporter assay protocol. […] Each peptide solution was tested in triplicate. […] Plates were then incubated at 37° C. for 24 h. Fluorescence (EX 500 nm/EM 540 nm) and OD600 of each well was measured using a plate reader, and the fluorescence values were normalized to the DMSO control.
(§3) The remaining steps of the fluorescence assay were the same as above.

[1] = system: S. epidermidis Group-I RP62A biofilm; details: 10 μM, 24 h
Description: as §1
Crystal violet biofilm assay protocol. […] Each solution was tested in triplicate.

AgrC-III = details: for Activity toward Group-III at lower concentration, in words: single concentration 100 nM (or 1 μM)
Source text: (§4) However, the biological significance of this agr interference remains unclear, although it has been hypothesized to potentially play a role in competition between different groups in a mixed bacteria milieu (18). […] To this end, the AIP analogs discussed above were screened in GFP reporter strains of Groups-II and -III S. epidermidis to complement the Group-I S. epidermidis data in Tables 1 and 2 (see Methods; FIGS. 7A and 7B).
as §1, §2, §3

AgrC-II = details: for Activity toward Group-II at lower concentration, in words: single concentration 100 nM (or 1 μM)
Source text: as §4, §1, §2, §3

[2] = system: AgrC I-IV receptors in S. aureus Groups-I-IV; assay: Fluorescence (GFP) reporter strain assays, S. aureus Groups-I-IV; format: cell-based; details: 100 nM unless noted
Source text: (§5) Similar to the cross-group inhibition observed between different agr groups of the same species, this cross-species inhibitory effect has no known biological role, but is hypothesized to provide a competitive advantage on a host (18, 46). Thus, AIP analogs described herein were examined to identify potential species-specific inhibitors that target either S. epidermidis Group-I or S. aureus Groups-I-IV.
as §1, with “The S. epidermidis wild-type strain RP62A (Group-I) was cultured in TSB (from Sigma or EMD Millipore).” left out, “All cultures were grown at 37° C. with shaking (200 rpm) unless noted otherwise.” left out
(§6) Fluorescence reporter assay protocol. […]
as §3

[3] = system: agr system of S. aureus Group-III; assay: Fluorescence (GFP) reporter strain assay, S. aureus Group-III; format: cell-based; details: 100 nM unless noted
Source text: as §5
as §1, with “The S. epidermidis wild-type strain RP62A (Group-I) was cultured in TSB (from Sigma or EMD Millipore).” left out, “All cultures were grown at 37° C. with shaking (200 rpm) unless noted otherwise.” left out
as §6, §3

[4] = dose response antagonism assay, FIGS. 3A/3B

AgrC-I receptor, sequence (Q5HMY3 entry or part of it): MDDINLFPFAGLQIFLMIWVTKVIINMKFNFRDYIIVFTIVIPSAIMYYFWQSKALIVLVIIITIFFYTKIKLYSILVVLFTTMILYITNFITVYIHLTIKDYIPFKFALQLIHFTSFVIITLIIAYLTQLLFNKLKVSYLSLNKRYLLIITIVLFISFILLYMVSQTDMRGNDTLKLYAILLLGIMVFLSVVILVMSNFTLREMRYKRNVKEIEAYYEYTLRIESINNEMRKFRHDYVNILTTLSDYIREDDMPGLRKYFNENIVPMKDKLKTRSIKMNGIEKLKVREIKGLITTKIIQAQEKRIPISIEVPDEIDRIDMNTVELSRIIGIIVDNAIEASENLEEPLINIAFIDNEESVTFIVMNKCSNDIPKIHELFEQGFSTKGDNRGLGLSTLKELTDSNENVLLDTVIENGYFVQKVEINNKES

## C[C@H](N)C(=O)N[C@@H](CO)C(=O)N[C@@H](C)C(=O)N[C@H]1CSC(=O)[C@H](Cc2ccccc2)NC(=O)[C@H](Cc2ccc(O)cc2)NC(=O)[C@H](C)NC(=O)[C@H](CO)NC1=O [AIP-I D1AS6AV3AA5S, A-S-A-(C-S-A-Y-F)] (H-ASACSAYF; thioester 4-C)
AgrC-I receptor
  Mode/strength of activity toward AgrC-I (Group I), in words: analogous potency as the parent triple mutant
[1]
  Effect on biofilm growth, in words: did not increase biofilm growth
AgrC-III; [4]
  IC50 against AgrC-III, in words: subnanomolar to low nanomolar range
AgrC-III
  Activity toward Group-III at lower concentration, in words: strongly inhibited
AgrC-II; [4]
  IC50 against AgrC-II, in words: subnanomolar to low nanomolar range
AgrC-II
  Activity toward Group-II at lower concentration, in words: strongly inhibited

## CC(C)C[C@@H]1NC(=O)[C@H](Cc2ccc(O)cc2)NC(=O)[C@H](CC(N)=O)NC(=O)[C@H](CO)NC(=O)[C@@H](NC(=O)[C@@H]2CCCN2C(=O)[C@H](CC(N)=O)NC(=O)[C@@H](N)Cc2ccc(O)cc2)CSC1=O [AIP-II 8aa, Y-N-P-(C-S-N-Y-L)] (H-YNPCSNYL; thioester 4-C)
[2]
  Effect on agr activity in S. aureus Groups-I-IV, in words: without significantly affecting agr activity
AgrC-I receptor
  Mode/strength of activity toward AgrC-I (Group I), in words: potency similar to the parent AIP-II
  Activity toward Group-I at lower concentration, in words: remained active; also recorded: selectively inhibited
AgrC-I receptor; read-out: Inhibition of AgrC-I (inhibiting to ~%)
  inhibition at 10 µM: ~75%
AgrC-III; single concentration 10 μM
  Activity against Group-III, in words: inactive
AgrC-II
  Activity toward Group-II at lower concentration, in words: inhibitory activity against Group-II decreased

## CC(C)C[C@@H]1NC(=O)[C@H](Cc2ccc(O)cc2)NC(=O)[C@H](CC(N)=O)NC(=O)[C@H](CO)NC(=O)[C@@H](NC(=O)[C@@H]2CCCN2C(=O)[C@H](CC(N)=O)NC(=O)[C@H](Cc2ccc(O)cc2)NC(=O)[C@@H](N)CCCCN)CSC1=O [AIP-II 9aa, K-Y-N-P-(C-S-N-Y-L)] (H-KYNPCSNYL; thioester 5-C)
[3]
  Inhibitory activity in S. aureus Group-III, in words: weak inhibitory activity
AgrC-I receptor
  Activity toward Group-I at lower concentration, in words: inhibited; also recorded: largely an inhibitor specific to S. epidermidis Group-I
AgrC-III
  Activity toward Group-III at lower concentration, in words: inactive
AgrC-II
  Activity toward Group-II at lower concentration, in words: highly active agonist

## I-N-(C-A-F-L-L) (INCAFLL; bridge 3-C; also: thiolactone between Cys3 side chain and C-terminus) [S. aureus AIP-III D4A, reference compound]
[2]
  Effect on agr activity in S. aureus Groups-I-IV, in words: potent pan-group inhibitor
AgrC-I receptor; activation dose response in the presence of 50 nM S. epidermidis AIP-II
  EC50 in AgrC-I: Inactive^c
AgrC-I receptor; antagonism dose response, peptide alone, Group-I GFP reporter strain, 24 h
  IC50 in AgrC-I: Inactive^c
AgrC-I receptor
  Mode/strength of activity toward AgrC-I (Group I), in words: largely inactive
  Activity toward Group-I at lower concentration, in words: inactive
AgrC-II
  Activity toward Group-II at lower concentration, in words: inhibiting exclusively Group-II

— US12662513B2, “Peptidic modulators of quorum sensing in Staphylococcus epidermidis” (priority 2016, dated 2026)
